The conditions of data set [1]: mouse, in vivo, po, 40 mg/kg. As to the method:
The animals were housed at a temperature of 22-24° C., humidity of 50% (+/−10%), in a room providing 15 air changes per hour, with 12:12 hours light-dark cycle. In addition, they had constant access to food and water. […] Blood was allowed to clot at room temperature for 20 min, then centrifuged for 5 min, 10,000×g (Eppendorf miniSpin centrifuge, Germany) to obtain serum. The obtained biological material was stored at −70° C. until analysis.
Concentrations of the tested compounds in murine serum and brain homogenates were determined by high-performance liquid chromatography-tandem mass spectrometry (HPLC-MS/MS). Analyzes were performed on a Sciex QTRAP 4500 triple quad mass spectrometer coupled to an Exion LC AC HPLC (Danaher Corporation, USA). The chromatographic separation was carried out on a Hypersil Gold™ C18 column (3×50 mm, 5 μm, Thermo Scientific, USA), using a mixture of acetonitrile and water with 0.1% formic acid as the mobile phase. Analyzes were performed at 40° C. and the gradient shown in Table 7 was used to obtain optimal retention time. Valsartan was used as an internal standard. Positive ionization mode (ESI+) was used for maximum sensitivity. […]
Non-compartmental analysis was used to estimate the pharmacokinetic parameters. Maximum concentration (Cmax) and time necessary to reach maximum blood concentration-tmax were evaluated directly from the concentration-time plot.

Data set [2] deals with maximal electroshock seizures in mice. Briefly: Maximal electroshock seizure test (MES). The data set is classed as in vivo. As to the method: (§1) Initial screening was performed on groups of 4 mice. The mean effective dose (ED50) in a given test and the neurotoxic dose in the rotarod test (TD50) were estimated on the basis of the results obtained on 3-4 groups of animals consisting of 6 animals.
In the maximal electroshock seizure test (MES), the seizures were induced by 500 V, 25 mA electrical stimulus of 0.2 s in duration. The electrical pulse was generated using an electric shock generator (Rodent shocker, Type 221, Hugo Sachs Elektronik, Germany) and delivered to the animal using electrodes placed on the auricles. The study was conducted 30 minutes/2 hours after intraperitoneal administration of the compounds at various doses. During the experiment, the number of animals that experienced a seizure episode in the form of hindlimb tonic extension was counted (Łuszczki, J.J. et al. Fundam. Clin. Pharmacol. 2008, 22, 69-74).
(§2) The ED50 (effective dose) and TD50 (toxic dose) values along with the corresponding 95% confidence limits were calculated based on the Litchfield and Wilcoxon method (Litchfield, J.T.; Wilcoxon, F. J. Pharmacol. Exp. Ther. 1949, 96, 99-113). To perform a statistical evaluation of the results in the scPTZ test, one-way ANOVA variance analysis followed by Dunnett's post hoc test were used. The values were considered statistically significant if p<0.05.

In data set [3] the test system is psychomotor seizures induced by a 32 mA, 6 Hz stimulus in mice. Briefly: Psychomotor seizure test 6 Hz (32 mA). The data set is classed as in vivo. As to the method:
as §1
(§3) In the psychomotor seizure test (6 Hz test), seizures were induced by a 32 mA and/or 44 mA electrical stimulus of a frequency of 6 pulses per second. An electrical pulse was generated using an electric shock generator (ECT Unit 57800; Ugo Basile, Gemonio, Italy) and delivered to the animal using corneal electrodes. Before starting the test, the eye surface was gently moistened with a solution of local anesthetic (1% lidocaine solution). The study was conducted 30 minutes/2 hours after intraperitoneal administration of the compounds at various doses. An electrical stimulus was delivered continuously for a period of 3 seconds, followed by observation of the animal for a period of 10 seconds. During the experiment, the number of animals with an episode of psychomotor convulsions was counted: motor inhibition, staggering, maintaining a sitting posture, forelimb clonus, twitching of the vibrissae and Straub-tail were observed (Leclercq, K.; Kaminski, R.M. Epilepsia 2015, 56, 310-318).
as §2

Data set [4] deals with psychomotor seizures induced by a 44 mA, 6 Hz stimulus in mice. Briefly: Psychomotor seizure test 6 Hz (44 mA). The conditions noted are these: in mg/kg. The data set is classed as in vivo. As to the method: as §1, §3, §2
Data set [5] relates to motor coordination of mice. Briefly: Rotarod test (motor coordination, acute neurotoxicity). The data set is classed as in vivo. The note with it: in mg/kg. As to the method:
as §1
The effect of the tested compounds on motor coordination was assessed in the rotarod test (May Commat, RR 0711 RotaRod, Turkey). The day before the actual experiment, the mice were trained on a rod rotating at 10 revolutions per minute (rpm) for 3 minutes. The experiment was performed 30 minutes and 2 hours after administration of the compounds. The motor coordination of the animals was tested at the speed of the rotating rod: 10 rpm for 60 seconds. The measure of neurotoxicity was the inability to stay on the rod for a given time (Łuszczki, J.J. et al. Eur. Neuropsychopharmacol. 2005, 6, 609-616).
as §2

The test system of data set [6] is human liver microsomes (HLMs). Briefly: In vitro metabolic stability, human liver microsomes. The data set is classed as in vitro ADME. The conditions noted are these: 120-minute incubation with HLMs. As to the method: Metabolic stability assessment was performed using mouse (MLMs) and human (HLMs) liver microsomes purchased from Sigma-Aldrich (St. Louis, MO, USA). The detailed methodology is described in the literature (Kamiński et al. J. Med. Chem. 2015, 58, 5274-5286). The reaction mixture was prepared by mixing […] of the tested compound with mouse or human microsomes (1 mg/mL) in 10 mM TRIS-HCl buffer. The reaction mixture was pre-incubated for 5 min at 37° C. After the initial incubation, 50 μL of the NADPH Regeneration System (Promega, Madison, WI, USA) was added to initiate the reaction. The reaction mixture was then incubated for 120 min at 37° C. 200 μL of cold extra pure methanol was added to complete the reaction. The mixture was then centrifuged at 14,000 g for 15 min and the supernatants were analyzed using a Waters ACQUITY™ TQD LC/MS system with a TQ detector (Waters, Milford, USA). Each experiment was performed in triplicate.

In data set [7] the test system is motor coordination of mice. The conditions noted are these: in vivo; cited from earlier work.
Data set [8] has as its system spontaneous locomotor activity of mice. The conditions noted are these: mouse, in vivo; cited from earlier work.
Data set [9] relates to human liver microsomes (HLMs). The conditions noted are these: cited from earlier work.
Data set [10] addresses CYP3A4 (Homo sapiens, UniProt P08684). The note with it: cited from earlier work.
Data set [11] deals with CYP2D9. The conditions noted are these: cited from earlier work.
Data set [12] relates to psychomotor seizures induced by a 32 mA, 6 Hz stimulus in mice. The conditions noted are these: 0.5 h, i.p.; own data disclosed in Abram et al. Bioorg. Chem. 2021; in mg/kg; cited from earlier work.
The subject of data set [13] is pentylenetetrazole-induced clonic seizures in mice. The note with it: 0.5 h, i.p.; own data disclosed in Abram et al. Bioorg. Chem. 2021; in mg/kg; cited from earlier work.
Setting [14] is: 0.5 h after i.p. administration.
The mark [15] stands for this setting: 2.0 h after i.p. administration.

Like-named read-outs stand apart in the source and are kept apart here.

Chain of CYP3A4 (P08684 whole entry): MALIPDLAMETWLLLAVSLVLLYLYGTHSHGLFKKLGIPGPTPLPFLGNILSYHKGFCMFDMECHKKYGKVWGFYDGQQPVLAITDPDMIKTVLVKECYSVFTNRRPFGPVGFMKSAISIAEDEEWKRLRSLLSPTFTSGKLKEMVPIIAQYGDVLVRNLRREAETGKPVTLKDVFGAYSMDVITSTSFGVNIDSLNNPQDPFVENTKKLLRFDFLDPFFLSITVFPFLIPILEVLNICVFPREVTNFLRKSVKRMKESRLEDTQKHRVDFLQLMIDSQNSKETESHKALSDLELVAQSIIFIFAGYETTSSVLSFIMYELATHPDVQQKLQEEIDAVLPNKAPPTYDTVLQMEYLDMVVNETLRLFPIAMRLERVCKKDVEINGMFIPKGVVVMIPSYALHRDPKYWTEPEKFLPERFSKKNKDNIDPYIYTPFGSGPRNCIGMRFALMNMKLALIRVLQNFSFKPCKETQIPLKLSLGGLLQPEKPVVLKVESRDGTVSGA

Consider `CC(C(=O)NCc1ccccc1F)N1C(=O)CCC1=O` (centres unmarked) [Compound 2, reference compound], for which the tmax in [1] was 30 min. In addition, the ED50 MES in data set [2] (setting [14]) was 23.6 mg/kg; in data set [2] (setting [15]), 73.3 mg/kg. For the same compound, the ED50 6 Hz (32 mA) is 16.7 mg/kg in data set [3] (setting [14]) and 38.1 mg/kg in data set [3] (setting [15]). The figures for the “ED50 6 Hz (44 mA)” value in [4] (setting [14]) and in data set [4] (setting [15]) were 78.3 and 86.8, respectively. Besides, the “TD50 Rotarod” value in data set [5] (setting [14]) was over 100; in data set [5] (setting [15]), over 300. In addition, the metabolic stability result in [6] was “high metabolic stability”. Moreover, in data set [7], the “effect on mouse motor coordination in the rotarod test” value is “minimal effect”. Also, the “sedative effect in spontaneous locomotor activity test on mice” value in [8] is “no sedative effect”. Also, the “metabolic stability on human microsomes” value in [9] is “very high metabolic stability”. The “interaction with CYP3A4 isoform of cytochrome P-450” value in data set [10] is given as “no interaction”. Also, the “interaction with CYP2D9 isoform of cytochrome P-450” value in data set [11] was “no interaction”.
On to `CCCC(CCC)C(=O)O` [VPA, valproic acid], for which, in data set [12], the “ED50 6 Hz (32 mA)” value is reported as 130.6. Besides, the “ED50 scPTZ” value in data set [13] was 239.4.
